Assay results reported in US11466024B2, “Bicylic compound acting as an inhibitor” (CHIA TAI TIANQING PHARMACEUTICAL GROUP CO., LTD., priority 2017, dated 2022).
Where a name gives a salt, the structure may show the parent alone. Values belong to the compound of their own block, whether it stands above or below them.

Tests used:
RORC2-LBD = target: T1, RORC2-LBD (Homo sapiens, UniProt P51449); test: In vitro test for inhibitory activity on RORγ: TR-FRET screening (RORC2-LBD / SRC1 peptide interaction); type: biochemical; details: Value of the concentration required for 50% inhibition (EC50) of RORγ, 15 nM RORc-LBD, 200 nM SRC1 peptide, 4° C. overnight
T1 sequence (P51449 269-508 limits assumed): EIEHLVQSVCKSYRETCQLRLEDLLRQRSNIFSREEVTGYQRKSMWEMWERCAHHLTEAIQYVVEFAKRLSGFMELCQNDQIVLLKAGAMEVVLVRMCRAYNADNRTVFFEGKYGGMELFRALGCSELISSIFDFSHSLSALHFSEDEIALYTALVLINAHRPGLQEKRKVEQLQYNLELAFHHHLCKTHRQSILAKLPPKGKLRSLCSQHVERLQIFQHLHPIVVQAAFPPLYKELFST
Excerpt: The compounds of the present application was able to regulate (inhibit) the bioactivity of the nuclear receptor RORγ, and the strength of this regulatory (inhibitory) effect could be evaluated by a TR-FRET (time-resolved fluorescence resonance energy transfer) screening system. Nuclear receptor cofactors (co-activators and co-inhibitors) could regulate the transcription of a target gene by the interaction with nuclear receptors. If a ligand (test compound) affected the interaction between the nuclear receptors and the cofactors, this ligand (test compound) was able to regulate the transcription of the corresponding gene.
This method adopted the TR-FRET (time-resolved fluorescence resonance energy transfer) technique to determine the ability of a compound to regulate the interaction between the polypeptide indirectly bound to APC […] (namely, APC was indirectly bound to the polypeptide by binding to Streptavidin and biotin) and RORC2-LBD linked to a europium (Eu)-labeled anti-His antibody (Perkin Elmer #AD0111). In the absence of the compound, RORC2 could bind to an APC-modified polypeptide. If the compound was an agonist, it could enhance the interaction between RORC2 and the APC-modified polypeptide after binding to RORC2. On the contrary, if the compound was an inverse agonist, it could inhibit the interaction between RORC2 and the APC-modified polypeptide after binding to RORC2. When the APC-modified polypeptide and the Eu-labeled anti-His antibody-RORC2-LBD complex approached to each other and the distance therebetween was within a certain distance, energy transfer could occur and a TR-FRET signal was generated.
A buffer solution comprising 50 mM Tris (pH 7.0), 50 mM KCl, 1 mM Na-EDTA, 0.01% BSA (0.1 mg/ml), and 0.1 mM DTT was freshly formulated prior to the experiment.
2.3 Formulation of a RORγ-containing working solution. Prior to the test, a working solution containing 1.67 nM Eu/anti-His and 0.75 μl/well of SF9 cell lysate was freshly formulated, and was placed on ice before use. 25.05 nM of RORγ was added to the working solution.
2.5 Ten concentration gradients were set for each test compound, and duplicate wells were set for each concentration. The formulating method of the test compounds was as follows: […]
2) 15 μl of the RORγ-containing working solution was added to columns 1 to 21 of the tested 384-well plate (the final concentration of Eu/anti-His was 1 nM, and the final concentration of RORg was 15 nM); and […]
9) data analysis was performed using the ratio of the numerical value detected at an emission wavelength of 665 nm to the numerical value detected at an emission wavelength of 615 nm. […]

RORγ = target: T2, RORγ (Homo sapiens, UniProt P51449); test: In vitro test for inhibitory activity on RORγ: luciferase reporter cells expressing chimeric Gal4-RORγ receptor; type: cell-based; details: Gal4 hybrid receptor luciferase reporter, HEK293, 24 hours incubation
T2 sequence (P51449 97-518): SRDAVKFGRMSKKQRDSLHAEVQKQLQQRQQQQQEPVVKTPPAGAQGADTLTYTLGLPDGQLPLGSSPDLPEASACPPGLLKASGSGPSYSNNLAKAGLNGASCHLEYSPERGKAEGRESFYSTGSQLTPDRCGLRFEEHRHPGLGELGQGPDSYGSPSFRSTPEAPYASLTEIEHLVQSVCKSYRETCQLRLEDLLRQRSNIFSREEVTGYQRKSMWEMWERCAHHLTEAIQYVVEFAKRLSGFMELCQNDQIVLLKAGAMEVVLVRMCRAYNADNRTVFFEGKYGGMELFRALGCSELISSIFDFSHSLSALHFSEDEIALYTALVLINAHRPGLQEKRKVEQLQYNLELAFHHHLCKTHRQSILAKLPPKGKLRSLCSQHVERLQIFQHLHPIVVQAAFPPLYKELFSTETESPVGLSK
Protocol: Reporter cells: Reporter cells expressing a chimeric RORγ receptor were used in this experiment. The chimeric RORγ receptor was a RORγ receptor formed by replacing the N-terminal DNA-binding domain of the natural RORγ protein with the DNA-binding domain of the yeast Gal4 protein. The luciferase reporter gene was located at the downstream of the Gal4 activating sequence (UAS).
Step 1: Reporter cells were prepared into a cell suspension using INDIGO's Cell Recovery Medium (CRM, containing 5% fetal bovine serum treated by activated carbon). The cell suspension was dispensed into a white 96-well culture plate in a volume of 100 μl/well.
Step 2: Eight concentration gradients were set for each test compound, and the test was conducted twice at each concentration. Prior to the experiment, the main stock solution of the test compound was serially diluted with DMSO, so as to formulate solutions with “1000×-concentration” relative to each of the final test concentrations. Subsequently, the compound was further diluted with the cell recovery medium (CRM, containing 5% fetal bovine serum treated by activated carbon), so as to formulate test working solutions with “2×-concentration”. As per a volume of 100 μl/well, the test working solutions were respectively added to the test wells in which the reporter cells were added in advance, so as to obtain the desired final test concentrations. The residual concentrations of DMSO in all test wells were 0.1%. The test plate was incubated in a cell incubator for 24 hours. Conditions of the incubator were set as follows: temperature: 37° C., 5% CO2, humidity: ˜85%.
Step 3: After 24 hours of incubation, the liquid in the culture plate was discarded, 100 μl of luciferase detection reagent was added to each test well, and then, the fluorescence intensity (Relative Luminescence Units, RLUs) in each well was read.
In this test, the reference compound ursolic acid was used as an internal standard of a positive compound to verify the inhibitory effect of the test compound on RORγ in reporter cells of a specific batch. The tests for the reference compound and the test compound were performed simultaneously, and the reference compound and the test compound were thus exposed to the same test reagent and environment. The reference compound group containing 0.1% DMSO as solvent was used as an internal standard of a positive compound, so as to determine the effect of the solvent DMSO on the test results and calculate the percentage reduction in RORγ activity.
The test data was managed and archived by Microsoft Excel, and mean±standard deviation (SD) of RLU, fold of reduction, inhibition rate, coefficient of variation (% CV) and Z factor were calculated. Coefficient of variation (% CV): 100×(SD/Ave. RLU); Fold of reduction for inverse agonist: [Ave. […]

[1] = system: MOG35-55-induced experimental autoimmune encephalomyelitis (EAE); test: In vivo pharmacodynamic research on MOG35-55-induced experimental autoimmune encephalomyelitis (EAE) in mice; details: G3, 0.5 mg/kg p.o. qd
Protocol: The day of immunization was recorded as day 0, and the subsequent days were marked sequentially. Mice were anesthetized with isoflurane, and 100 μl of the emulsion was administered via subcutaneous injection at three sites (the middle part between shoulder and back, and two sides of the tail that were close to the groin), namely, 33 μl of the emulsion for each site. 0 hour and 48 hours after the injection of the emulsion, 200 ng (i.e. 200 μl) of the PTX solution was intraperitoneal injected. Mice in the normal group were not required to be immunized.
After the immunization on day 0, the immunized mice were randomly divided into 3 groups with 10 mice in each group according to the body weights except for the mice in the normal group, the details were shown in Table 1. FTY720 served as a positive drug, and a dose of […] was an effective dose commonly used in the EAE model.
The first group was normal mice without any treatment; vehicle was administered to the second group; FTY720 was administered to the third group at a dose of 0.5 mg/kg once a day; and the compound of Example 1 was administered to the fourth group at a dose of 75 mg/kg twice a day. The administration lasted for 25 days in total. The volume of intragastric administration was 10 ml/kg.
The day when animals were immunized was day 0. Animal body weights were recorded three times a week from day 0 to day 10, and the body weights and clinical scores of the animals were closely observed and recorded daily from day 11.
The experimental data was expressed as mean±standard error of mean (Mean±SEM).
The area under the curve of clinical scores over time (i.e. “AUC of clinical scores” or “area under the curve of clinical scores”) was calculated by analyzing the curve of clinical scores for each animal in each group, and the inhibition rates of the remaining groups (G1, G3, and G4) relative to G2 (solvent control group) were calculated by the mean AUC of clinical scores among groups.

[2] = system: imiquimod-induced psoriasis; test: In vivo pharmacodynamic study in imiquimod (IMQ)-induced psoriasis model in mice; parameters: species or system C57BL/6 mice; key to Clinical scores (Mean ± SEM, n = 8): 0 = no disease, 1 mild, 2 moderate, 3 severe, 4 very severe; details: 5 mg/kg, ig
Protocol: 6- to 8-week old female C57BL/6 mice were selected, depilated on the backs, and sensitized two days later except for the sham operation group. On the day of sensitization, the mice were randomly divided into the following 6 groups (8 mice per group). Group I was a sham operation group; Group II was a vehicle control group and PBS was administered; Group III was a positive control group and 5 mg/kg methotrexate was administered; Groups IV, V and VI were ip treatment group, ig treatment group, and topical treatment group of the compound of Example 1, and 75 mg/kg of the compound of Example 1 was administered via intraperitoneal injection, intragastric administration, and dorsal application, respectively. Administration was started on the day of sensitization, once daily for Group III and twice daily for Groups IV to VI. On the day of sensitization, the mice in Groups II to VI were given 60 to 80 mg of imiquimod cream (5%) on the dorsal skin for 4 consecutive days. (Please refer to Bouchaud, G., et al., Epidermal IL-15Ralpha acts as an endogenous antagonist of psoriasiform inflammation in mouse and man. J. Exp. Med., 2013. 210(10): p. 2105-17.)
The mice were weighed daily from the day of sensitization, and the skin scales, induration, and erythema were observed and scored according to a four-grade scoring method: 0 point, no disease; 1 point, mild; 2 points, moderate; 3 points, severe; and 4 points, very severe. (Please refer to Qin, S., et al., Endogenous n-3 polyunsaturated fatty acids protect against imiquimod-induced psoriasis-like inflammation via the IL-17/IL-23 axis. Mol Med Rep, 2014. 9(6): p. 2097-104.)

Compound: CCCCCCCCc1ccc(CCC(N)(CO)CO)cc1 [FTY720, fingolimod hydrochloride, reference compound]
- inhibition rate of AUC of clinical scores relative to solvent control group ([1]; 25 days, FIG. 2): 100%
- morbidity of EAE ([1]; from the beginning to end, FIG. 3): 0
- body weight changes ([1]; significantly different from solvent control group, FIG. 4): kept increasing

Compound: CN(Cc1cnc2nc(N)nc(N)c2n1)c1ccc(C(=O)N[C@@H](CCC(=O)O)C(=O)O)cc1 [Methotrexate, reference compound]
- Clinical scores (Mean ± SEM, n = 8) ([2]; Day 1): 0 ± 0
- Clinical scores (Mean ± SEM, n = 8) ([2]; Day 2): 0.19 ± 0.13
- Clinical scores (Mean ± SEM, n = 8) ([2]; Day 3): 0.50 ± 0.13
- Clinical scores (Mean ± SEM, n = 8) ([2]; Day 4): 0.88 ± 0.25
- Clinical scores (Mean ± SEM, n = 8) ([2]; Day 5): 0.93 ± 0.23

Results, then the compound that gave them:

- EC50 (RORC2-LBD): 100 to 500 nM
- EC50 (RORγ; Specific value of the concentration required for 50% inhibition (EC50) of RORγ): 147 nM
- EC50 (RORγ; Value of the concentration required for 50% Inhibition (EC50) of RORγ): 100 to 500 nM
Compound: CCS(=O)(=O)c1ccc(CNC(=O)c2cc3c(s2)C(C(C)C)N(CC2CCC(C(F)(F)F)CC2)C3=O)nc1 (single isomer, unassigned) [Example 3]

- EC50 (RORC2-LBD): 1000 to 5000 nM
Compound: CCS(=O)(=O)c1ccc(CNC(=O)c2cc3c(s2)C(C(C)C)N(CC2CCC(C(F)(F)F)CC2)C3=O)nc1 (single isomer, unassigned) [Example 4]

- EC50 (RORC2-LBD): < 100 nM
Compound: CCS(=O)(=O)c1ccc(CNC(=O)c2cc3c(s2)C(C(C)C)N(Cc2ccc(C(F)(F)F)cc2)C3)nc1 (stereo not shown) [Example 9]
